Measurements taken from patent publication US11110080B2, “Small molecule inhibitors of bacterial efflux pumps and methods of using same” (The Regents of the University of Colorado, a body Corporate, priority 2017, dated 2021).
“Also recorded” adds a separate entry of the source.

What was measured:
Type in all cases: cell-based, Salmonella enterica serovar Typhimurium
[1] = system: S.Tm wild-type SL1344, MAR1 and S10801; assay: microbe, parasite or virus in culture; conditions: MAR1 and S10801
Experimental: Increased expression or function of efflux pumps often contributes to clinical multidrug resistance. Therefore, whether the EPMs re-sensitize two multidrug resistant strains of S.Tm to tetracycline was tested. Tetracycline is an antibiotic exported by AcrAB. The MAR1 strain is derived from wild-type SL1344 was selected by exposure to tetracycline, and has increased expression of the AcrAB efflux pump. S10801 is an MDR strain isolated from the mesenteric lymph node of a septic calf and is resistant to tetracycline, ampicillin, chloramphenicol, nalidixic acid, and triple sulfa. The basis of multi-drug resistance in this strain is unknown.
(§1) Overnight Salmonella cultures were washed 3 times in PBS and diluted to an OD of 0.01 in Mueller Hinton Broth in 96-well flat bottom plates. Compound was added using a pin tool (CyBio) or manually, yielding a final concentration of no more than 1% DMSO. Plates were grown at 37° C. shaking and OD600 was monitored using a BioTek Eon incubator shaker microplate absorbance reader. For experiments in defined media, bacteria were grown in M9 minimal media supplemented with 100 mM Tris pH 7.4, 0.35% glycerol, 0.002% histidine, 10 mM MgCl2, and 0.1% casamino acids. Where indicated, media was supplemented with 5 μg/ml polymyxin B or 0.2 mM H2O2. For experiments with LL-37, bacteria were grown in M9 minimal media supplemented with 0.4% dextrose, 0.004% histidine, 1 mM MgSO4, and 5 μg/ml LL-37. For checkerboard assays, MIC was defined as the concentration at which no growth was visually observed.

[2] = system: extracellular S.Tm grown in MHB broth; assay: Broth activity assay (growth / MIC in Mueller Hinton Broth); conditions: Salmonella enterica, three Salmonella strains SL1344, MAR1, S10801
Experimental: as §1

S.Tm efflux pumps [3] = assay: Hoechst 33342 accumulation assay
Experimental: Efflux pumps (EPs) represent a key pathogen virulence strategy to protect against host antimicrobials as well as therapeutic antibiotics. […] To uncover putative EPMs within our collection of hits, 58 repurchased compounds were screened in a Hoechst accumulation assay. Bacteria were incubated with Hoechst 33342, a dye which fluoresces when bound to DNA.
Hoechst accumulation assays were performed essentially as described in the literature. Briefly, overnight Salmonella cultures were washed 3 times in PBS and diluted to an OD of 0.1 in PBS with 2.5 μM Hoechst 33342 in the presence of the indicated concentrations of compounds. Fluorescence was monitored on a Biotek Synergy 2 with a 360/40 nm excitation filter and 460/40 nm emission filter. The maximum Hoechst fluorescence over 60 minutes of incubation was normalized to the signal from the equivalent number of heat-killed bacteria, after subtraction of autofluroescent signal determined from compound incubated in the absence of bacteria. Curve fitting to determine EC50s was performed using GraphPad Prism.

S.Tm efflux pumps [4] = assay: Nile Red efflux assay
From the text: Because Hoechst and other dyes commonly used to assess efflux bind cellular components, direct measurement of efflux is not possible using these methods; instead, the Hoechst assay measures dye accumulation, the net result of entry and efflux. Further, the slow off-rate of Hoechst entails that efflux pumps have no effect on dye already bound to DNA. As a result, compounds which increase Hoechst accumulation may actually enhance dye entry by altering porins or disrupting the membrane. To more specifically measure efflux pump activity, a second technique was employed using the dye Nile Red, a lipophilic membrane-partitioning dye which fluoresces in nonpolar environments. Because Nile Red is not known to bind cellular components, to directly observe efflux cells were preloaded with the dye in the absence of glucose to reduce efflux pump activity (FIG. 7A). Upon addition of glucose, bacteria rapidly effluxed Nile Red and fluorescence returned to baseline levels (FIG. 7B, top panel). […] The initial measured fluorescence was lower for DMSO-treated cells (upper dotted line) than for PAβN-treated cells due to glucose-independent efflux during sample preparation (FIG. 8A). Next, it was determined whether efflux pump activity is restored after removal of PAβN. Bacteria were incubated with compound for 15 minutes, pelleted and resuspended in buffer lacking compound, and then stimulated with glucose (FIGS. 7C, 7E).
Nile Red assays were adapted from an established protocol. Briefly, overnight Salmonella cultures were grown in Mueller-Hinton cation-adjusted broth (Sigma), washed, and resuspended at an OD600 of 2.0. Cells were incubated in 10 μM Nile Red for 3 hours at 37° C. with aeration, then moved to room temperature for 1 hour. After pelleting at 2000× g, dye-loaded cells were aliquoted and combined with compound at the indicated concentrations. Two hundred microliters was loaded into 96-well black walled plates (Greiner) and read using a Varioskan Flash Multimode Reader with 540 nm excitation and 625 nm emission filters. We observed that during loading into plates (˜20 minutes), bacteria were able to efflux Nile Red even in the absence of glucose (FIG. 8A). To activate efflux, glucose was added to a final concentration of 2 mM. In some experiments, bacteria were treated with drug for 15 minutes, pelleted at 16,000×g, resuspended in fresh buffer, and stimulated with 2 mM glucose. All wash and incubation steps were performed in PBS with 1 mM MgCl2; incubations were performed in glass tubes to reduce adhesion of Nile Red.

S.Tm = assay: Swimming assay in soft agar (proton motive force); conditions: 50 mM, 10 μl on disk (500×, 125×, ~62.5× the MIC for EPM30, EPM35, EPM43)
Experimental: One way to inhibit efflux pumps is to disrupt the proton motive force, which is required for transport by some EPs. […] Bacteria were injected into the center of 0.25% agar plates, and 10 μl of compound was added to paper disks on the periphery. […] Also ampicillin and rifampicin were tested. We plotted the halo radius versus the concentration as the fold above the MIC (FIG. 9G). […] Next, it was determined whether PAβN inhibited swimming; PAβN is thought to disrupt membranes over long incubations. […] Finally, the EPMs at […] were tested (FIGS. 9D-F).
Saturated overnight cultures were diluted to an OD600 of 0.01 in LB and 1 μL was injected into the center of low agar (0.25%) LB plates. Ten microliters of the indicated compounds were added to sterilized Whatman paper disks (diameter 0.7 cm) placed equidistant from the plate center.

S.Tm efflux pumps [5] = assay: Nile Red efflux assay; conditions: 20 minutes incubation in 75 μM

Q: With CC(C)c1nc(NC(=N)N)sc1Br [EPM30] as the compound, how does the “sensitivity of MDR S.Tm to tetracycline” value [1] read?
A: not

Q: What about the MIC [2] of the same compound?
A: 100 µM

Q: What about the “Hoechst assay EC50 relative to PAβN” value (S.Tm efflux pumps [3]) of the same compound?
A: lower than that of PAβN

Q: What about the “Hoechst accumulation / fluorescence” value (S.Tm efflux pumps [3]; wild-type S.Tm, 60 minutes) of the same compound?
A: increased S.Tm accumulation of Hoechst in a dose-dependent manner; also recorded: fluorescence comparable to that of PAβN

Q: And the “glucose-activated efflux of Nile Red” value (S.Tm efflux pumps [4]; 75 μM)?
A: fully inhibited efflux

Q: What about the “Nile Red efflux after washout of compound” value (S.Tm efflux pumps [4]; 15 minutes with compound, washed, then glucose) of the same compound?
A: partially restored efflux; also recorded: partially restored Nile Red export

Q: And the “Nile Red fluorescence in the absence of glucose (basal loss)” value (S.Tm efflux pumps [4]; no glucose)?
A: immediate reduction in fluorescence

Q: What about the “halo in swimming assay” value (S.Tm) of the same compound?
A: formed a halo

Q: And the “bacterial integrity and viability” value (S.Tm efflux pumps [5])?
A: remain intact and viable
